According to the SangsterLogP compilation:

Assay: method code SF-AS, from PMID: 7312925

In order of rising logP:
1. Cc1cc(OCC(=O)O)c(Cl)nn1  -1.22
2. Cc1[nH]n2cnnc2c(=O)c1N=O  -1.1
3. CC(=O)Nc1nnc(C)cc1O  -0.89
4. Cc1cc(O)c(N)nn1  -0.85
5. Cc1cc(O)c(Cl)nn1  -0.82
6. Cc1[nH]n2cnnc2c(=O)c1Br  -0.68
7. Cc1[nH]n2cnnc2c(=O)c1N  -0.52
8. Cc1cc(C)c(N)nn1  -0.32
9. Cc1cc(O)c(O)nn1  -0.3
10. Cc1cc(=O)c2nncn2[nH]1  -0.21
11. Cc1cc(O)c(N2CCOCC2)nn1  -0.06
12. CCOc1cc(=O)c2nncn2[nH]1  0.02
13. Cc1cc(S)c(N)nn1  0.13
14. Cc1cc(O)c(N(C)C)nn1  0.24
15. Cc1cc(C)c(NN(C=O)Cc2ccccc2)nn1  0.61
16. Cc1cc(C)c(N/N=C\c2ccccc2)nn1  0.93
